Reference: patent publication US5843889A, “Glycopeptide antibiotic derivatives” (Eli Lilly and Company, priority 1997, dated 1998)
Values after ≈ are worked out from the molar mass of the structure shown.

Experiments:
Format in all cases: cell-based
[1] = system: Entercoccus faecium 180-1; experiment: MIC, standard broth micro-dilution assay
Method: (§1) The MIC's were determined using a standard broth micro-dilution assay.

Entercoccus faecium 180 = experiment: MIC, standard broth micro-dilution assay
Method: as §1

Escherichia coli EC14 = experiment: MIC, standard broth micro-dilution assay
Method: as §1

[2] = system: Haemophilus influenzae RD; experiment: MIC, standard broth micro-dilution assay
Method: as §1

[3] = system: Staphylococcus aureus 446; experiment: MIC, standard broth micro-dilution assay
Method: as §1

[4] = system: Staphylococcus aureus 447; experiment: MIC, standard broth micro-dilution assay
Method: as §1

[5] = system: Staphylococcus aureus 489; experiment: MIC, standard broth micro-dilution assay
Method: as §1

[6] = system: Staphylococcus aureus 491; experiment: MIC, standard broth micro-dilution assay
Method: as §1

[7] = system: Staphylococcus aureus SA1199A; experiment: MIC, standard broth micro-dilution assay
Method: as §1

[8] = system: Staphylococcus aureus SA1199; experiment: MIC, standard broth micro-dilution assay
Method: as §1

[9] = system: Staphylococcus aureus X400; experiment: MIC, standard broth micro-dilution assay
Method: as §1

[10] = system: Staphylococcus aureus X778; experiment: MIC, standard broth micro-dilution assay
Method: as §1

[11] = system: Staphylococcus epidermidis 270; experiment: MIC, standard broth micro-dilution assay
Method: as §1

[12] = system: Staphylococcus haemolyticus 105; experiment: MIC, standard broth micro-dilution assay
Method: as §1

[13] = system: Staphylococcus haemolyticus 415; experiment: MIC, standard broth micro-dilution assay
Method: as §1

[14] = system: Streptococcus pneumoniae P1; experiment: MIC, standard broth micro-dilution assay
Method: as §1

[15] = system: Staphylococcus aureus S13E
Method: as §1

[16] = system: Staphylococcus aureus SA1199B
Method: as §1

[17] = system: Entercoccus faecalis 2041; experiment: MIC, standard broth micro-dilution assay
Method: (§2) The formula I compounds have in vitro and in vivo activity against Gram-positive pathogenic bacteria. The MIC's were determined using a standard broth micro-dilution assay.

Entercoccus faecalis 276 = experiment: MIC, standard broth micro-dilution assay
Method: as §2

[18] = system: Entercoccus gallinarum 245; experiment: MIC, standard broth micro-dilution assay
Method: as §2

Pedicoccus acidilacti = experiment: MIC, agar dilution on brain-heart infusion agar; conditions: Pedioccccus acidilacti (mean of 10)
Pediococcus pentosaceus = experiment: MIC, agar dilution on brain-heart infusion agar; conditions: Pediococcus pentosaceus (mean of 2)
Leuconostoc lactis = experiment: MIC, agar dilution on brain-heart infusion agar; conditions: Leuconostoc lactis (mean of 2)
[19] = system: Leuconostoc mesenteroides; experiment: MIC, agar dilution on brain-heart infusion agar; conditions: Leuconostoc mesenteroides (mean of 4)
Lactobacillus confusus = experiment: MIC, agar dilution on brain-heart infusion agar

Row | SMILES | MIC [1] [µg/mL] | MIC (Entercoccus faecium 180) [µg/mL] | MIC (Escherichia coli EC14) [µg/mL] | MIC [2] [µg/mL] | MIC [3] [µg/mL] | MIC [4] [µg/mL] | MIC [5] [µg/mL] | MIC [6] [µg/mL] | MIC [7] [µg/mL] | MIC [8] [µg/mL] | MIC [9] [µg/mL] | MIC [10] [µg/mL] | MIC [11] [µg/mL] | MIC [12] [µg/mL] | MIC [13] [µg/mL] | MIC [15] [µg/mL] | MIC [16] [µg/mL] | MIC [17] [µg/mL] | MIC (Entercoccus faecalis 276) [µg/mL] | MIC [18] [µg/mL] | other results
1 | CNC(CC(C)C)C(=O)NC1C(=O)NC(CC(N)=O)C(=O)NC2C(=O)NC3C(=O)NC(C(=O)NC(C(=O)O)c4cc(O)cc(O)c4-c4cc3ccc4O)C(OC3CC(C)(N)C(O)C(C)O3)c3ccc(c(Cl)c3)Oc3cc2cc(c3OC2OC(CO)C(O)C(O)C2OC2CC(C)(NCc3cc(-c4ccccc4)nc4ccc(OC)cc34)C(O)C(C)O2)Oc2ccc(cc2Cl)C1O (stereo not shown) [Compound 45, 4-[2-phenyl-6-methoxy]quinoylmethyl] | ≤ 0.06 | 1 (≈ 0.544 µM) | > 64 | > 64 | 1 (≈ 0.544 µM) | 16 (≈ 8.7 µM) | 0.5 (≈ 0.272 µM) | 1 (≈ 0.544 µM) | ≤ 0.06 | 2 (≈ 1.09 µM) | 0.25 (≈ 0.136 µM) | 0.25 (≈ 0.136 µM) | 8 (≈ 4.35 µM) | 16 (≈ 8.7 µM) | 8 (≈ 4.35 µM) | 0.5 (≈ 0.272 µM) | 1 (≈ 0.544 µM) | 0.125 (≈ 0.0679 µM) | 0.25 (≈ 0.136 µM) | 0.5 (≈ 0.272 µM) | MIC [14]: ≤ 0.06 µg/mL
2 | CNC(CC(C)C)C(=O)NC1C(=O)NC(CC(N)=O)C(=O)NC2C(=O)NC3C(=O)NC(C(=O)NC(C(=O)O)c4cc(O)cc(O)c4-c4cc3ccc4O)C(OC3CC(C)(N)C(O)C(C)O3)c3ccc(c(Cl)c3)Oc3cc2cc(c3OC2OC(CO)C(O)C(O)C2OC2CC(C)(NCc3ccc(C(O)c4ccccc4)cc3)C(O)C(C)O2)Oc2ccc(cc2Cl)C1O (stereo not drawn) [Compound 109, 4-[alpha-hydroxybenzyl]benzyl] | ≤ 0.06 | 0.25 (≈ 0.14 µM) | – | 32 (≈ 17.9 µM) | 1 (≈ 0.559 µM) | 1 (≈ 0.559 µM) | ≤ 0.06 | 0.25 (≈ 0.14 µM) | ≤ 0.06 | ≤ 0.06 | ≤ 0.06 | ≤ 0.06 | 0.25 (≈ 0.14 µM) | 1 (≈ 0.559 µM) | 4 (≈ 2.24 µM) | 0.25 (≈ 0.14 µM) | 0.5 (≈ 0.28 µM) | ≤ 0.06 | ≤ 0.06 | ≤ 0.06 | –
3 | CNC(CC(C)C)C(=O)NC1C(=O)NC(CC(N)=O)C(=O)NC2C(=O)NC3C(=O)NC(C(=O)NC(C(=O)O)c4cc(O)cc(O)c4-c4cc3ccc4O)C(OC3CC(C)(N)C(O)C(C)O3)c3ccc(c(Cl)c3)Oc3cc2cc(c3OC2OC(CO)C(O)C(O)C2OC2CC(C)(NCc3ccc(Cc4ccccc4)cc3)C(O)C(C)O2)Oc2ccc(cc2Cl)C1O (stereo not shown) [Compound 50, 4-benzylbenzyl] | ≤ 0.06 | 0.25 (≈ 0.141 µM) | > 64 | > 64 | 0.5 (≈ 0.282 µM) | 0.5 (≈ 0.282 µM) | ≤ 0.06 | 0.5 (≈ 0.282 µM) | ≤ 0.06 | 1 (≈ 0.564 µM) | – | – | 0.5 (≈ 0.282 µM) | 0.5 (≈ 0.282 µM) | 1 (≈ 0.564 µM) | – | 2 (≈ 1.13 µM) | ≤ 0.06 | 0.25 (≈ 0.141 µM) | 1 (≈ 0.564 µM) | MIC [14]: ≤ 0.06 µg/mL; MIC (Pedicoccus acidilacti): 51 µg/mL (≈ 28.8 µM); MIC (Pediococcus pentosaceus): 64 µg/mL (≈ 36.1 µM); MIC (Leuconostoc lactis): 64 µg/mL (≈ 36.1 µM); MIC [19]: 64 µg/mL (≈ 36.1 µM); MIC (Lactobacillus confusus): 64 µg/mL (≈ 36.1 µM)
4 | CNC(CC(C)C)C(=O)NC1C(=O)NC(CC(N)=O)C(=O)NC2C(=O)NC3C(=O)NC(C(=O)NC(C(=O)O)c4cc(O)cc(O)c4-c4cc3ccc4O)C(OC3CC(C)(N)C(O)C(C)O3)c3ccc(c(Cl)c3)Oc3cc2cc(c3OC2OC(CO)C(O)C(O)C2OC2CC(C)(NCc3ccc4c(c3)OCO4)C(O)C(C)O2)Oc2ccc(cc2Cl)C1O (stereo not shown) [Compound 48, 3,4-methylenedioxylbenzyl] | ≤ 0.06 | 1 (≈ 0.579 µM) | > 64 | > 64 | 0.125 (≈ 0.0724 µM) | 2 (≈ 1.16 µM) | ≤ 0.06 | 0.25 (≈ 0.145 µM) | ≤ 0.06 | 0.25 (≈ 0.145 µM) | ≤ 0.06 | ≤ 0.06 | 1 (≈ 0.579 µM) | 2 (≈ 1.16 µM) | 8 (≈ 4.63 µM) | ≤ 0.06 | 1 (≈ 0.579 µM) | ≤ 0.06 | ≤ 0.06 | 1 (≈ 0.579 µM) | MIC [14]: ≤ 0.06 µg/mL
5 | CNC(CC(C)C)C(=O)NC1C(=O)NC(CC(N)=O)C(=O)NC2C(=O)NC3C(=O)NC(C(=O)NC(C(=O)O)c4cc(O)cc(O)c4-c4cc3ccc4O)C(OC3CC(C)(N)C(O)C(C)O3)c3ccc(c(Cl)c3)Oc3cc2cc(c3OC2OC(CO)C(O)C(O)C2OC2CC(C)(NCc3c(O)ccc4ccccc34)C(O)C(C)O2)Oc2ccc(cc2Cl)C1O (stereo not shown) [Compound 44] | ≤ 0.06 | 8 (≈ 4.57 µM) | > 64 | > 64 | 0.25 (≈ 0.143 µM) | 1 (≈ 0.572 µM) | ≤ 0.06 | – | ≤ 0.06 | 0.25 (≈ 0.143 µM) | ≤ 0.06 | ≤ 0.06 | 0.5 (≈ 0.286 µM) | 2 (≈ 1.14 µM) | 4 (≈ 2.29 µM) | 0.25 (≈ 0.143 µM) | 0.25 (≈ 0.143 µM) | ≤ 0.06 | 0.125 (≈ 0.0715 µM) | 0.5 (≈ 0.286 µM) | –
6 | CNC(CC(C)C)C(=O)NC1C(=O)NC(CC(N)=O)C(=O)NC2C(=O)NC3C(=O)NC(C(=O)NC(C(=O)O)c4cc(O)cc(O)c4-c4cc3ccc4O)C(OC3CC(C)(N)C(O)C(C)O3)c3ccc(c(Cl)c3)Oc3cc2cc(c3OC2OC(CO)C(O)C(O)C2OC2CC(C)(NCC3CC=CCC3)C(O)C(C)O2)Oc2ccc(cc2Cl)C1O (stereo not shown) [Compound 47, 3,4 cyclohexenylmethyl] | ≤ 0.06 | 2 (≈ 1.19 µM) | > 64 | > 64 | 0.125 (≈ 0.0741 µM) | 2 (≈ 1.19 µM) | ≤ 0.06 | 0.5 (≈ 0.296 µM) | 0.25 (≈ 0.148 µM) | 0.5 (≈ 0.296 µM) | ≤ 0.06 | ≤ 0.06 | 1 (≈ 0.593 µM) | 4 (≈ 2.37 µM) | 16 (≈ 9.49 µM) | ≤ 0.06 | 0.25 (≈ 0.148 µM) | ≤ 0.06 | ≤ 0.06 | 16 (≈ 9.49 µM) | MIC [14]: ≤ 0.06 µg/mL
7 | CNC(CC(C)C)C(=O)NC1C(=O)NC(CC(N)=O)C(=O)NC2C(=O)NC3C(=O)NC(C(=O)NC(C(=O)O)c4cc(O)cc(O)c4-c4cc3ccc4O)C(OC3CC(C)(N)C(O)C(C)O3)c3ccc(c(Cl)c3)Oc3cc2cc(c3OC2OC(CO)C(O)C(O)C2OC2CC(C)(NCc3ccc(C(c4ccccc4)c4ccccc4)cc3)C(O)C(C)O2)Oc2ccc(cc2Cl)C1O (stereo not shown) [Compound 46, 4-diphenylmethylbenzyl] | ≤ 0.06 | 0.5 (≈ 0.27 µM) | > 64 | > 64 | 1 (≈ 0.541 µM) | 2 (≈ 1.08 µM) | 1 (≈ 0.541 µM) | 2 (≈ 1.08 µM) | 0.5 (≈ 0.27 µM) | 2 (≈ 1.08 µM) | 2 (≈ 1.08 µM) | 2 (≈ 1.08 µM) | 2 (≈ 1.08 µM) | 2 (≈ 1.08 µM) | 2 (≈ 1.08 µM) | 2 (≈ 1.08 µM) | 2 (≈ 1.08 µM) | 1 (≈ 0.541 µM) | 0.5 (≈ 0.27 µM) | 0.25 (≈ 0.135 µM) | MIC [14]: ≤ 0.06 µg/mL
